Test results published in patent publication US20070088069A1, “Novel imidazoles” (Warner-Lambert Company LLC, priority 2005, published 2007).

Tests used:
[1] = test system: Sterol Biosynthesis in L6 Rat Myoblast; assay: Sterol biosynthesis in L6 rat myoblast (14C acetic acid into cholesterol); assay type: cell-based; details: 3 hours pre-incubation, 3 hours 14C acetic acid labeling
Procedure: L6 rat myoblast purchased from ATCC(CRL-1458) were grown in T-150 vented culture flasks and seeded on 12-well culture plates at a density of 60,000 cells per well. The cells were grown in DMEM, (Dulbecco's Modified Eagle Medium) (Gibco, #10567-014) containing 10% heat inactivated FBS (Fetal Bovine Serum) (Gibco # 10082-139) for 72 hours until reaching confluence. The cells were pre-incubated in media with compound and 0.2% DMSO (dimethyl sulfoxide) for 3 hours and then labeled by incubating in medium containing compound, 0.2% DMSO and 1 μCi/per mL of ^14C acetic acid for an additional 3 hours. After labeling, the cells were washed once with 1×PBS (Gibco #14190-144) then lysed overnight at 4° C. in buffer containing 10% KOH and 78% (vol.) ethanol.
Lipid ester bonds were hydrolyzed by saponification of the lysates at 60° C. for 2 hours. […] The amount of ^14C cholesterol was quantified by scintillation counting in a Trilux 1450 plate reader (Wallac). The IC50 values were calculated from % inhibitions relative to negative controls vs. compound concentration on Microsoft excel 2000 data analysis wizard using a sigmoid inhibition curve model with formula: y=Bmax(1−(x^n/K^n+x^n))+y2 Where K is the IC50 for the inhibition curve, X is inhibitor concentration, Y is the response being inhibited and Bmax+Y2 is the limiting response as X approaches zero.

[2] = test system: Sterol Biosynthesis in Rat Hepatocytes; assay: Sterol biosynthesis in rat hepatocytes (14C acetic acid into cholesterol); assay type: cell-based; details: Hepatocyte, 4 hrs pre-incubation, 4 hrs 14C acetic acid labeling, read-out: IC50 in the cell assay (sterol biosynthesis in rat hepatocytes)
Procedure: Frozen rat hepatocytes purchased from XenoTech (cat# N400572) were seeded on 6-well collagen I coated plates at a density of 10^5 cells/per well. The cells were grown in DMEM, (Dulbecco's Modified Eagle Medium) (Gibco, #11054-020) containing 10% FBS (Fetal Bovine Serum) and 10 mM HEPES, (N-2-hydroxyethyl-piperazine-N^1-2-ethane sulfonic acid) (Gibco # 15630-080) for 24 hrs. The cells were pre-incubated with compounds for 4 hrs and then labeled by incubating in medium containing 1 μCi/per mL of ^14C acetic acid for an additional 4 hrs. After labeling, the cells were washed twice with 5 mM MOPS, (3-[N-morpholino]propane sulfonic acid) solution containing 150 mM NaCl and 1 mM EDTA and collected in the lysis buffer containing 10% KOH and 80% (vol.) ethanol.
In order to separate labeled cholesterol from labeled non-cholesterol lipids, the cells lysates were subject to saponification at 60° C. for 2 hrs. The lysates were then combined with 0.5 volume of H2O and 2 volumes of hexane, followed by 30 minutes of vigorous shaking. After the separation of two phases, the upper-phase solution was collected and combined with 5 volumes of scintillation cocktail. The amount of ^14C cholesterol was quantified by liquid scintillation counting. The IC50 values were calculated with GraphPad software (Prism 3.03).

[3] = target: T1, HMGCoA (3-Hydroxy-3-methylglutaryl CoA) Reductase (Rattus norvegicus, UniProt P51639); assay: HMGCoA reductase assay with rat liver microsomes; assay type: biochemical; details: 14C-HMGCoA, 45 min at 37° C., read-out: IC50 in the in vitro HMGCoA reductase assay
T1 construct: from tissue; host or cells: liver microsomes of male Sprague-Dawley rats fed cholestyramine
T1 sequence (P51639 1-887): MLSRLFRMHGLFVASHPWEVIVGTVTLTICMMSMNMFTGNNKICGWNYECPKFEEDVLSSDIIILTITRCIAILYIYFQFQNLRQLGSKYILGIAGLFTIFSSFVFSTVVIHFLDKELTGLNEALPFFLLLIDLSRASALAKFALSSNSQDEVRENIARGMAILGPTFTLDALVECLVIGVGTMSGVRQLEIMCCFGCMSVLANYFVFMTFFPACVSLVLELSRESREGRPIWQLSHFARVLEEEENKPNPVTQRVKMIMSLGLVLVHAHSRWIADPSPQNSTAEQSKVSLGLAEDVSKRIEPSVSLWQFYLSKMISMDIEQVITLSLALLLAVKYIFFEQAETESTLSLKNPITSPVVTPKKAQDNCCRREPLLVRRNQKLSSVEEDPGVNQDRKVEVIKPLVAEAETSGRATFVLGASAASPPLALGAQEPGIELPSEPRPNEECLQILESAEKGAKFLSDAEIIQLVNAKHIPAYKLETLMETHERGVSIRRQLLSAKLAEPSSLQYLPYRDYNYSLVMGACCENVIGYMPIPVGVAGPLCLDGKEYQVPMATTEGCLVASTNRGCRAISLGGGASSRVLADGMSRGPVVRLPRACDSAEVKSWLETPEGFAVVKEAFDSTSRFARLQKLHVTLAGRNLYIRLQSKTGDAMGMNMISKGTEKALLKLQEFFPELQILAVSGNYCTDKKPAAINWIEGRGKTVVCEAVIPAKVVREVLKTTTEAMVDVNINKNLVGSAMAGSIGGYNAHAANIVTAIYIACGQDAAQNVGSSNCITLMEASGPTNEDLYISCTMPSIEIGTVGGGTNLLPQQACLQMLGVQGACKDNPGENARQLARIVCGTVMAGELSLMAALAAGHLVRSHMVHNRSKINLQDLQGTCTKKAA
Procedure: Male Charles River Sprague-Dawley rats were fed with 2.5% cholestyramine in rat chow diets for 5 days before sacrificing. Livers were minced and homogenized in a sucrose homogenizing solution in an ice bath 10 times. Homogenates were diluted into a final volume of 200 mL, and centrifuged 15 min. with a Sorvall Centrifuge at 5° C., 10,000 rpm (12,000×G). The upper fat layer was removed and the supernatant decanted into fresh tubes. This step was repeated one more time before transferring the supernatant into ultracentrifuge tubes and centrifuged at 36,000 rpm (105,000×G) for an hour at 5° C. The resulting supernatant was discarded and the pellet was added to total of 15 mL 0.2 M KH2PO4. Pellets were homogenized gently by hand about 10 times. Samples were pooled and diluted into total of 60 mL buffer. The protein concentration of the homogenate was determined by the […] using a BCA (Bicinchoninic acid), kit from Pierce Chemical Company. 1 mL aliquots of microsomes were kept frozen in liquid nitrogen.
[3-^14C]-HMGCoA (57.0 mCi/mmol) was purchased from Amersham Biosciences, UK. […] Scintillation cocktail (Ultima-Flo-M) was added into each well and plates counted on a Trilux Microbeta Counter. The IC50 values were calculated with GraphPad software (Prism). […]

Row | IC50 [3] [nM] | Compound | IC50 [1] [nM] | IC50 [2] [nM]
1 |  | C[C@@H](NC(=O)c1nc(-c2ccc(F)cc2)n(CC[C@@H](O)C[C@@H](O)CC(=O)O)c1C1CC1)c1ccccc1 [Example 1, Sodium: (3R,5R)-7-[5-Cyclopropyl-2-(4-fluoro-phenyl)-4-((R)-1-Phenyl-ethylcarbamoyl)-imidazol-1-yl]-3,5-dihydroxy-heptanoate] | 449 | 
2 | 36.8 | C[C@H](c1ccccc1)N(C)C(=O)c1nc(-c2ccc(F)cc2)n(CC[C@@H](O)C[C@@H](O)CC(=O)O)c1C1CC1 [Example 2, Sodium; (3R,5R)-7-{5-Cyclopropyl-2-(4-fluoro-phenyl)-4-[methyl-((R)-1-phenyl-ethyl)-carbamoyl]-imidazol-1-yl}-3,5-dihydroxy-heptanoate] |  | 0.27
